Results as given in US9072698B2, “Method for screening anti-cancer compounds inhibiting function of TM4SF5 and anti-cancer composition containing chalcone compounds” (Seoul National University Industry Foundation, priority 2006, dated 2015).
In brackets after ≈: the same amount, converted by molar mass.

What was measured:
Assay type in all cases: cell-based
[1] = test system: HCT15 (colon adenocarcinoma); assay: In vitro cytotoxicity, sulforhodamine B (SRB) method, HCT15; details: Homo sapiens; HCT-15, SRB method; read-out: cytotoxicity (ED50) HCT-15
Method: (§1) The chalcone derivatives of the present invention were evaluated for in vitro cytotoxicity against human carcinoma cell lines using a sulforhodamine B (SRB) method, which was developed in 1989 by the National Cancer Institute (NCI), USA.
(§2) HCT15 (colon adenocarcinoma; ATCC CCL-225), PC-3 (prostate adenocarcinoma; ATCC CRL-1435), and A-549 (lung carcinoma; ATCC CCL-185) cell lines were used. All of these carcinoma cells were sub-cultured at the Korean Research Institute of Bioscience and Biotechnology (KRIBB), Korea.
(§3) The human carcinoma cell lines were cultured in 10% FCS-containing RPMI 1640 medium (Gibco Cat. No. 31800) in an incubator at 37° C. under 5% CO2, and sub-cultured twice per week.
(§4) Cells were detached from the attached surface using 0.25% Trypsin (Sigma) and 3 mM CDTA (1,2-cyclohexane diamine tetraacetic acid, Sigma) in phosphate buffered saline (PBS, Sigma).
(§5) Compounds to be tested (the chalcone derivatives set forth in Table 1) were dissolved in a small amount of dimethylsulfoxide (DMSO, Sigma), and diluted in culture medium to a desired concentration. The final concentration of DMSO was less than 0.5%. The diluted compounds (final concentration: 30, 10, 3, 1 and 0.3 μg/ml) were sterilized through a 0.22-μm microfilter (Millipore). The cytotoxicity of the compounds to human carcinoma cell lines was assessed using a typical SRB method.

[2] = test system: PC-3 (prostate adenocarcinoma); assay: In vitro cytotoxicity, sulforhodamine B (SRB) method, PC-3; details: Homo sapiens; PC-3, SRB method; read-out: cytotoxicity (ED50) PC-3
Method: as §1, §2, §3, §4, §5

A-549 (lung carcinoma) = assay: In vitro cytotoxicity, sulforhodamine B (SRB) method, A-549; details: Homo sapiens, A549; A-549, SRB method; read-out: cytotoxicity (ED50) A-549
Method: as §1, §2, §3, §4, §5

SMILES	IC50 [1]	IC50 [2]	IC50 (A-549 (lung carcinoma))
O=C(/C=C/c1cccc(O)c1)c1ccc(NS(=O)(=O)c2ccc(O)cc2)cc1 [Compound 7, 4′-(p-hydroxybenzenesulfonylamino)-3-hydroxychalcone]	33 µg/mL (≈ 83.5 µM)	37 µg/mL (≈ 93.6 µM)	30 µg/mL (≈ 75.9 µM)
O=C(/C=C/c1ccc(O)cc1)c1ccc(OS(=O)(=O)c2ccccc2)cc1 [Compound 40, 4′-(benzenesulfonate)-4-hydroxychalcone]	31 µg/mL	39 µg/mL	30 µg/mL
O=C(/C=C/c1ccc(O)cc1O)c1ccccc1NS(=O)(=O)c1cccc(O)c1 [Compound 70, 2′-(m-hydroxybenzenesulfonylamino)-2,4-dihydroxychalcone]	8 µg/mL (≈ 19.4 µM)	11 µg/mL (≈ 26.7 µM)	9 µg/mL (≈ 21.9 µM)
Nc1cccc(S(=O)(=O)Nc2ccc(C(=O)/C=C/c3ccc(O)cc3)cc2)c1 [Compound 31, 4′-(m-aminobenzensulfonylamino)-4-hydroxychalcone]	24 µg/mL (≈ 60.8 µM)	27 µg/mL (≈ 68.4 µM)	34 µg/mL (≈ 86.2 µM)
O=C(/C=C/c1ccc(O)cc1)c1ccc(OS(=O)(=O)c2ccc(O)cc2)cc1 [Compound 84, 4′-(p-hydroxybenzenesulfonate)-4-hydroxychalcone]	32 µg/mL (≈ 80.7 µM)	22 µg/mL (≈ 55.5 µM)	38 µg/mL (≈ 95.9 µM)
O=C(/C=C/c1cccc(O)c1O)c1cccc(NS(=O)(=O)c2ccc(O)cc2)c1 [Compound 53, 3′-(p-hydroxybenzenesulfonylamino)-2,3-dihydroxychalcone]	8 µg/mL (≈ 19.4 µM)	8 µg/mL (≈ 19.4 µM)	7 µg/mL (≈ 17 µM)
O=C(/C=C/c1ccc(O)cc1O)c1cccc(NS(=O)(=O)c2ccc(O)cc2)c1 [Compound 54, 3′-(p-hydroxybenzenesulfonylamino)-2,4-dihydroxychalcone]	7 µg/mL (≈ 17 µM)	9 µg/mL (≈ 21.9 µM)	9 µg/mL (≈ 21.9 µM)
O=C(/C=C/c1ccc(O)cc1)c1cccc(NS(=O)(=O)c2cccc(O)c2)c1 [Compound 18, 3′-(m-hydroxybenzenesulfonylamino)-4-hydroxychalcone]	33 µg/mL (≈ 83.5 µM)	39 µg/mL (≈ 98.6 µM)	31 µg/mL (≈ 78.4 µM)
CS(=O)(=O)Nc1ccc(C(=O)/C=C/c2ccc(O)c(O)c2)cc1 [Compound 82, 4′-(methanesulfonylamino)-3,4-dihydroxychalcone]	12 µg/mL (≈ 36 µM)	22 µg/mL (≈ 66 µM)	17 µg/mL (≈ 51 µM)
O=C(/C=C/c1ccc(O)c(O)c1)c1ccc(NS(=O)(=O)c2ccccc2[N+](=O)[O-])cc1 [Compound 77, 4′-(o-nitrobenzensulfonylamino)-3,4-dihydroxychalcone]	10 µg/mL (≈ 22.7 µM)	12 µg/mL (≈ 27.2 µM)	11 µg/mL (≈ 25 µM)
O=C(/C=C/c1ccc(O)cc1)c1ccccc1NS(=O)(=O)c1cccc(O)c1 [Compound 21, 2′-(m-hydroxybenzenesulfonylamino)-4-hydroxychalcone]	31 µg/mL (≈ 78.4 µM)	43 µg/mL (≈ 109 µM)	39 µg/mL (≈ 98.6 µM)
O=C(/C=C/c1ccc(O)c(O)c1)c1ccc(NS(=O)(=O)c2ccccc2F)cc1 [Compound 74, 4′-(o-fluorobenzensulfonylamino)-3,4-dihydroxychalcone]	8 µg/mL (≈ 19.4 µM)	14 µg/mL (≈ 33.9 µM)	11 µg/mL (≈ 26.6 µM)
O=C(/C=C/c1ccc(O)cc1)c1ccc(OS(=O)(=O)c2ccc(F)cc2)cc1 [Compound 36, 4′-(p-fluorobenzenesulfonate)-4-hydroxychalcone]	48 µg/mL (≈ 120 µM)	39 µg/mL (≈ 97.9 µM)	41 µg/mL (≈ 103 µM)
Cc1ccc(S(=O)(=O)Nc2cccc(C(=O)/C=C/c3ccc(O)cc3)c2)cc1 [Compound 4, 3′-(p-toluenesulfonylamino)-4-hydroxychalcone]	38 µg/mL (≈ 96.6 µM)	37 µg/mL (≈ 94 µM)	34 µg/mL (≈ 86.4 µM)
O=C(/C=C/c1ccc(O)cc1O)c1ccc(OS(=O)(=O)c2cccc(O)c2)cc1 [Compound 96, 4′-(m-hydroxybenzenesulfonate)-2,4-dihydroxychalcone]	8 µg/mL (≈ 19.4 µM)	24 µg/mL (≈ 58.2 µM)	7 µg/mL (≈ 17 µM)
O=C(/C=C/c1ccccc1O)c1ccc(OS(=O)(=O)c2ccc(O)cc2)cc1 [Compound 86, 4′-(p-hydroxybenzenesulfonate)-2-hydroxychalcone]	26 µg/mL (≈ 65.6 µM)	34 µg/mL (≈ 85.8 µM)	30 µg/mL (≈ 75.7 µM)
